{"source": "patent US20110059869A1", "about": "“Method for Increasing Enzymatic Reactivity” (RIKEN, priority 2008, published 2011)", "key": {"restriction enzyme BceAI": {"tested_on": "restriction enzyme BceAI", "assay": "BceAI cleavage of biotin-labeled 300 bp DNA fragments adsorbed to streptavidin beads", "type": "biochemical", "method": "Biotin-labeled 300 by DNA fragments adsorbed (bound) to streptavidin beads were reacted with the restriction enzyme BceAI and the final concentration of the trehalose that was added to the system was examined as follows.\nPCR was conducted with biotin-labeled primers (Seq. ID Nos. 1 and 2) on 300 by DNA fragments using pFLCIII vector as template. The fragments were cleaved at the type II restriction enzyme site BceAI, releasing 50 by DNA fragments that were detected. Paramagnetic streptavidin beads were washed with accessory 1× binding buffer, recovered with a magnetic stand to remove the supernatant, and then suspended in the same buffer. Equal volumes of the PCR product-containing solution and 2× binding buffer were mixed, the bead solution was added, and the mixture was gently stirred with top to bottom inversion and rotation for 15 minutes at room temperature to induce adsorption. The magnetic stand was used to recover the sample adsorption beads, which were washed three times with 1× binding buffer. They were then washed once with 1× BceAI buffer. […] The reaction solutions were added to washed beads, mixed, and reacted for 3 hours at 37° C. The beads were recovered with the magnetic stand and cleaved with restriction enzyme. The supernatant containing the cDNA that had been released was reacted with proteinase K, treated with phenol chloroform, and precipitated from ethanol. […]"}, "λ phage cDNA library": {"tested_on": "λ phage cDNA library", "assay": "Preparation of a λ phage cDNA library, titer from plaques", "details": "samples prepared under trehalose (+) 0.6 M vs trehalose (−)", "method": "Double-stranded cDNA/RNA hybrid samples that had been immobilized on streptoavidin beads and synthesized under trehalose (+) and trehalose (−) conditions were employed to prepare a λ phage cDNA library. Following synthesis of double-stranded cDNA, the beads were washed with blunting buffer (T4 DNA polymerase buffer). Blunting reaction solution (1× T4 DNA polymerase buffer, 0.6 M trehalose, 0.1 mM dNTP mix, T4 DNA polymerase 5 units) was added and the mixture was incubated for 20 minutes at 12° C. Following the reaction, the beads were washed three times with 0.1× TE, and then washed one more time with 1× ligation buffer. Ligation reaction solution (1× T4 DNA ligation buffer, 0.6 M trehalose, 5′ end BamHI overhang adapter 2 ug, T4 DNA ligase 800 units) was added and the mixture was reacted overnight at 16° C. The beads were washed three times with 0.1× TE and then washed once with 1× XhoI. Restriction enzyme XhoI reaction solution (1× XhoI buffer, 0.6 M trehalose, XhoI 40 units) was added and the mixture was incubated for three hours at 37° C. The beads were recovered with a magnetic stand and the supernatant containing the cDNA that had been released by XhoI cutting was separated. […] A 10 uL quantity and a 100 uL quantity were admixed to the C600/MgSO4 suspensions to infect them with phage. […] The plaques that appeared were counted and the titer was calculated (Scheme 3)."}, "[1]": {"tested_on": "enzyme reaction solution in a Genome Analyzer system", "assay": "Sequencing reaction in a Solexa sequencing system (Genome Analyzer), PhiX control", "type": "biochemical", "details": "trehalose 0.15 M, 0.3 M", "method": "D(+)-trehalose was added to the enzyme reaction solution in a Genome Analyzer system (GAI) and the results were measured. The experiment was conducted with the three D(+)-trehalose final concentrations of 0.15 M, 0.3 M, and 0.51 M. The ratio of the reduction in the average value obtained by dividing the fluorescence intensity calculated for each cycle by the number of clusters was employed for comparison.\nThe D(+)-trehalose employed was D(+)-trehalose (90208 BioChemika, ≧99.5% (HPLC) (Fluka). A 36-cycle Illumina Sequencing Kit (FC-204-2036) was employed for sequencing with a Genome Analyzer (Illumina). The sample employed was PhiX control (CT-901-1001).\nThe IMX36 (42 mL) in box 2 of the SBS Kit contained in the 36-Cycle SBS Reagent Kit v2 (IIlumina catalog #FC-204-2036) was melted, after which D(+)-trehalose was added in the quantities indicated in Table 3.\nFollowing the addition, the mixture was shielded from light and gently mixed with top to bottom inversion for 10 minutes at room temperature. Once the dissolution had been visually confirmed, the mixture was passed through a filter (with a filter pore system of 0.22 micrometers). Precisely the required 42 mL was collected from the mixed solution following filtration. Subsequently, the operations specified in the manufacturer's protocol were conducted."}, "[2]": {"tested_on": "XhoI, PstI, HindIII, and NotI", "assay": "Various restriction enzyme reactions on biotin-labeled cDNA immobilized on streptavidin beads", "type": "biochemical", "details": "0.6 M trehalose vs trehalose (−); 3 hours at 37° C.; all enzymes", "method": "Streptavidin beads on which were adsorbed double-stranded cDNA were washed with various restriction enzyme buffers. The restriction enzymes employed were XhoI, PstI, HindIII, and NotI. Two reaction solutions (various 1× buffers, 1× BSA based on enzyme, restriction enzyme 40 units) were prepared: a trehalose (+) system to which D(+)-trehalose was added to a final concentration of 0.6 M, and a trehalose (−) system, to which no trehalose was added. The reaction solutions were admixed to beads that had been washed and the mixtures were reacted for 3 hours at 37° C. A magnetic stand was used to recover (aggregate) the beads, cleavage was conducted with restriction enzyme, and the supernatant containing the cDNA that had been released was measured with a liquid scintillation counter. The cDNA yield and restriction enzyme efficiency were calculated from the RI count values (Scheme 2)."}}}
{"smiles": "OC[C@H]1O[C@H](O[C@H]2O[C@H](CO)[C@@H](O)[C@H](O)[C@H]2O)[C@H](O)[C@@H](O)[C@@H]1O", "note": "[trehalose, D(+)-trehalose]", "values": [{"measurement": "change in yield of 50 by fragments with trehalose concentration", "setting": "restriction enzyme BceAI; 0 M, 0.3 M, 0.6 M, and 0.8 M trehalose", "result": "No change was observed beyond 0.6 M"}, {"measurement": "yield of 50 by fragments released by cleavage", "setting": "restriction enzyme BceAI; trehalose added vs not added, beads, 3 hours at 37° C.", "result": "increased"}, {"measurement": "titer of the phage library", "setting": "λ phage cDNA library", "result": "clearly better results"}, {"measurement": "difference in rate of reduction in fluorescence intensity, trehalose (+) vs trehalose (−)", "setting": "[1]; 35th cycle, 0.51 M, PhiX control", "result": "≥ 20", "unit": "%"}, {"measurement": "PhiX control mapping rate", "setting": "[1]; 0.51 M relative to trehalose (−)", "result": "overall significant difference"}, {"measurement": "quantity of released cDNA recovered", "setting": "[2]", "result": "higher quantity was recovered"}]}
